Reference: patent US8404696B2, “Quinazoline-2,4-dione derivative, and medical compositions for the prophylaxis and treatment of cranial nerve disease containing the same” (Shin Poong Pharmaceutical Co., Ltd., priority 2008, dated 2013)

Legend:
thoracic aorta of rats = assay: Relaxing effect on thoracic aorta contracted by phenylephrine (organ bath); design: species or system rats of SD species; conditions: 67 μg/mL, phenylephrine 0.5 μM, mean n = 3; for inhibition at 67 µg/mL: Rattus norvegicus, read-out: Relaxation percentage
Excerpt: After male rats of SD species (250-300 g) were anesthetized by inhalation of ether, their thoracic aortas were extracted and put into a Krebs buffer (mM; NaCl 118, NaHCO3 27.3, KCl 4.8, MgSO4 1.2, KH2PO4 1.0, CaCl2 1.25, glucose 11.1). 2 mm of aortic ring was made under dissecting microscope and cultured in an organ bath to measure the tension of blood vessels. The organ bath was filled with Krebs buffer and saturated with 95% O2, 5% CO2 to maintain dissolved oxygen and physiological pH. Changing of tension was measured by a tension meter (Hugo-sachs, model K30) and recorded by physiological recorder (Coulbourn polygraph). The length of the blood vessels was increased step by step to make 1.0 g of basal tension for 90 minutes. The equilibrated blood vessel was contracted by phenylephrine (0.5 μM). When the contraction furrow reached equilibrium, compounds were added, followed by observation of relaxation response.

[1] = test system: pentylentetrazole (PTZ)-induced convulsion; assay: Anti-convulsant effect, pentylentetrazole (PTZ) test; type: in vivo; conditions: 10 mg/kg intraperitoneally, PTZ 80 mg/kg subcutaneously; for mortality rate / Induction percentage of convulsion: (animals/total); for mortality rate: negative control 70(17/23); for Induction percentage of convulsion: negative control 100(23/23); for Initiation time of convulsion: negative control 5.0 ± 0.7; for Duration of convulsion: negative control 46.7 ± 3.3
Protocol: An experiment was performed by the method of Ali et al. (Ali, A. et al. 2006, Pharmacological Reports, 58: 242-245). A 10 mg/kg dose of compound was intraperitoneally administered to identify the anti-convulsant effect and the effect was observed (Table 8). Researching the process of activity was performed by the Anti-epileptic Drug Development Program (ADD) of NIH during development of the anti-convulsant drug. One of the assessed items of anti-convulsant activity in the first step of this program is the pentylentetrazole (PTZ) test. […] After 10 mg/kg of the testing drug was administered, assessment was performed by estimating the initiation time of convulsion, duration until convulsion completely disappeared and mortality rate. It was assessed as having an anti-convulsant effect when a single episode of clonic spasm was not shown over 5 seconds on at least one of the 4 laboratory animals after PTZ administration.

[2] = test system: mixed culture of nerve cells-glial cells; assay: Protecting effect on NMDA-induced nerve cell death (LDH release); type: cell-based, ICR mouse; conditions: 100 μM NMDA, LDH release after 24 hours
Protocol: Isolation and culture of nerve cells were performed by Choi's method (Choi, D. W. 1985, Neurosci. Lett., 58: 293-297). That is, the cortex was isolated in fetus ICR mouse that was 14 days pregnant, and then single cells were obtained from the tissue using pipette. The cells were aliquoted into 2×10^5/well density in a 24-well plate (Falcon) in which glial cells of cerebral cortex had been cultured in an incubator maintained at 37° C. with 5% CO2 for over 3 weeks. The culture medium was supplemented with MEM (minimum essential medium, Sigma), 2 mM glutamine, 21 mM glucose, 26.5 mM bicarbonate, 10% fetal bovine serum (FBS). In 3-5 days after aliquot, 10 μM Ara-C (cytosine arabinoside) was treated to suppress proliferation of neuroglia. And it was treated with 100 μM NMDA and 1 μg/mL or 2 μg/mL of each sample (compound) to induce the death of nerve cells due to excitable toxicity for 20 minutes, in 12-15 days after aliquot. Because of nerve cell death, lactate dehydrogenase (LDH) accumulated in proportion to the number of dead cells. In 24 hours after drug treatment, the amount of dehydrogenase (LDH) released to outside of cells was measured by using an […] measurement kit (CytoTox 96, Promega). After the reaction was completed, the change of absorbance depending on the amount of LDH was measured by using a microplate spectrophotometer.

[3] = test system: middle cerebral artery occlusion (MCAO) model; assay: Anti-stroke effect in MCAO model, intravenous administration around reperfusion; type: in vivo, rats of SD species; conditions: for Inhibitory percentage compared to negative control / Infarcted volume (Mean ± standard deviation): 1 mg/kg iv; for Infarcted volume (Mean ± standard deviation): negative control 0.43 ± 0.02
Protocol: Male rats of SD species with 290-300 g of body weight were used as laboratory animals, and 8 rats were used in each experiment group. The operation was performed by using the method of Nagasawa et al. (Nagasawa, H. and Gogure, K. 1989, Stroke, 20: 1037-1043).
The rats were anesthetized by Ketamine, and the operation was performed as body temperature was maintained using thermoplate. The cerebral region was incised following the median line of the neck, and the left common carotid artery, internal carotid artery and external carotid artery were separated, taking care not to damage the vagus nerve. The common carotid artery and external carotid artery were ligatured, and a probe was inserted into the internal carotid artery from the branch point of the internal and external carotid arteries. And then the fundus of the middle cerebral artery was occluded by ligature just on the upper side of the insertion region. A probe was made by heating the end of a 4-0 nylon surgical suture (Dafilon, B. Braun, Germany) and cut into 30 mm. The 7-9 mm end of the probe was coated with the mixture of silcon (Xantopren VL plus, Heraeus Kulzer, Germany) and curing agent (Optosyl-Xantopren VL plus, Heraeus Kulzer, Germany), and the thickness was to be 0.3-0.4 mm. After the intervention of the probe insertion and the animals came out of the anesthetic, individuals in which neurological deficit symptom (right direction circling) was observed were included in the ischemia group.
After 3 hours of ischemia, the inserted probe was removed to reperfuse blood circulation. The brain was extracted after 24 hours, followed by histological staining.
The compound 3 was administered at a programmed time before or after insertion of the probe with oral or intravenous administration. TTC (2,3,5-triphenyltetrazolium chloride) staining was performed to estimate the damage of brain tissue by ischemia. Procephalon of the extracted brain was sliced into 2 mm of sequential slice by using brain matrix (ASI instrument, Warren, Mich., USA). The slices were put into 2% of TTC solution and incubated at 37° C. for 60 minutes for staining. The TTC stained brain slice was fixed in 10% of formalin buffer and the front of the each slice was photographed with a digital camera. The infarcted areas (cm^2) that were not stained with deep red in each acquired image were measured using an image analyzer, and total infarcted volume (cm^3) was calculated by multiplying the thickness of the slices
In the experiment, the probe was removed after stoke induction so that circulation was reperfused.

[4] = treatment time 0.5 after reperfusion
[5] = treatment time 1 after reperfusion
[6] = treatment time 2 after reperfusion
[7] = treatment time 4 after reperfusion
[8] = treatment time 6 after reperfusion
[9] = treatment time 12 after reperfusion
[10] = treatment time 18 after reperfusion
[11] = treatment time 24 after reperfusion
[12] = treatment time −0.5 after reperfusion

Structure (SMILES)	mortality rate [1]	Induction percentage of convulsion [1]	Initiation time of convulsion [1] [min]	Duration of convulsion [1] [min]	Inhibitory effect of cell death by NMDA-induced excitable neurotoxicity ([2]; 1 μg/ml compound) [%]	Inhibitory effect of cell death by NMDA-induced excitable neurotoxicity ([2]; 2 μg/ml compound) [%]	inhibition at 67 µg/mL (thoracic aorta of rats) [%]	other results
O=c1[nH]c2ccccc2c(=O)n1CCCNCCCCN(CCCn1c(=O)[nH]c2ccccc2c1=O)Cc1ccccc1 [Compound 9, 3-{3-[4-({N-[3-(2,4-dioxo-1,4-dihydro-2H-quinazolin-3-yl)propyl]-N-benzyl}amino)butylamino]propyl}-1H-quinazoline-2,4-dione]	67(4/6) %	100(6/6) %	4.4 ± 0.7	39.8 ± 10.3	21.4	33.3	–	Relaxation percentage (thoracic aorta of rats): 95.5%
O=C(c1ccccc1)N(CCCCNCCCn1c(=O)[nH]c2ccccc2c1=O)CCCn1c(=O)[nH]c2ccccc2c1=O [Compound 10, N-[3-(2,4-dioxo-1,4-dihydro-2H-quinazolin-3-yl)propyl]-N-{4-[3-(2,4-dioxo-1,4-dihydro-2H-quinazolin-3-yl)propylamino]butyl}benzamide]	17(1/6) %	100(6/6) %	5.8 ± 1.4	49.9 ± 5.4	15.4	13.7	4.9	–
CS(=O)(=O)N(CCCCN(CCCn1c(=O)[nH]c2ccccc2c1=O)S(C)(=O)=O)CCCn1c(=O)[nH]c2ccccc2c1=O [Compound 18, N-[3-(2,4-dioxo-1,4-dihydro-2H-quinazolin-3-yl)propyl]-N-(4-{[3-(2,4-dioxo-1,4-dihydro-2H-quinazolin-3-yl)propyl]methansulfonylamino}butyl)methansulfonamide]	0(0/6) %	83(5/6) %	19.1 ± 8.4	5.2 ± 3.4	44.4	21.0	42.4	–
CC(=O)N(CCCCNCCCn1c(=O)[nH]c2ccccc2c1=O)CCCNC(=O)c1ccc(O)cc1 [Compound 19, N-[3-(acetyl-{4-[3-(2,4-dioxo-1,4-dihydro-2H-quinazolin-3-yl)propylamino]butyl}amino)propyl]-4-hydroxybenzamide]	0(0/6) %	50(3/6) %	38.7 ± 1.5	1.8 ± 2.7	40.1	45.2	11.8	–
CC(=O)N(CCCCNCCCNC(=O)c1ccc(O)cc1)CCCn1c(=O)[nH]c2ccccc2c1=O [Compound 20, N-[3-(4-{acetyl-[3-(2,4-dioxo-1,4-dihydro-2H-quinazolin-3-yl)propyl]amino}butylamino)propyl]-4-hydroxybenzamide]	0(0/6) %	50(3/6) %	44.7 ± 11.0	0.9 ± 1.9	36.4	42.5	15.2	–
CN1C(=O)CN=C(c2ccccc2)c2cc(Cl)ccc21 [Diazepam, reference compound]	0(0/6) %	0(0/6) %	–	–	–	–	–	–
C[C@]12N[C@H](Cc3ccccc31)c1ccccc12 [MK-801]	–	–	–	–	49.0	63.6	–	Inhibitory percentage compared to negative control [3, 4]: 50.2%; Infarcted volume (Mean ± standard deviation) [3, 4]: 0.21 ± 0.04 cm^3; Inhibitory percentage compared to negative control [3, 5]: 27.0%; Infarcted volume (Mean ± standard deviation) [3, 5]: 0.31 ± 0.02 cm^3; Inhibitory percentage compared to negative control [3, 6]: 22.8%; Infarcted volume (Mean ± standard deviation) [3, 6]: 0.33 ± 0.02 cm^3; Inhibitory percentage compared to negative control [3, 7]: 34.4%; Infarcted volume (Mean ± standard deviation) [3, 7]: 0.28 ± 0.08 cm^3; Inhibitory percentage compared to negative control [3, 8]: 13.3%; Infarcted volume (Mean ± standard deviation) [3, 8]: 0.37 ± 0.06 cm^3; Inhibitory percentage compared to negative control [3, 9]: 8.7%; Infarcted volume (Mean ± standard deviation) [3, 9]: 0.39 ± 0.06 cm^3; Inhibitory percentage compared to negative control [3, 10]: 7.4%; Infarcted volume (Mean ± standard deviation) [3, 10]: 0.40 ± 0.08 cm^3; Inhibitory percentage compared to negative control [3, 11]: 8.8%; Infarcted volume (Mean ± standard deviation) [3, 11]: 0.39 ± 0.05 cm^3; Inhibitory percentage compared to negative control [3, 12]: 55.4%; Infarcted volume (Mean ± standard deviation) [3, 12]: 0.19 ± 0.06 cm^3; Treatment time after reperfusion giving the maximum effect ([3]; positive control, iv): 30 min
